Assays:
BuChE = details: read-out: IC50 (BuChE, by context); lignans from Citharexylum spinosum L.; cited from earlier work
α-glucosidase = α-glucosidase inhibition assay; format: biochemical; details: pure compound and standard
Procedure: Results are expressed as IC50 values (mg/mL for extracts and µM for pure compound), using GraphPad Prism 8 Software (San Diego, CA, USA). The assay was carried out in triplicate.

[1] = target: acetylcholinesterase (AChE) (Homo sapiens, UniProt P22303); assay: biochemical; details: read-out: % of inhibition against AChE
Chain of acetylcholinesterase (AChE) (P22303 32-614, species assumed): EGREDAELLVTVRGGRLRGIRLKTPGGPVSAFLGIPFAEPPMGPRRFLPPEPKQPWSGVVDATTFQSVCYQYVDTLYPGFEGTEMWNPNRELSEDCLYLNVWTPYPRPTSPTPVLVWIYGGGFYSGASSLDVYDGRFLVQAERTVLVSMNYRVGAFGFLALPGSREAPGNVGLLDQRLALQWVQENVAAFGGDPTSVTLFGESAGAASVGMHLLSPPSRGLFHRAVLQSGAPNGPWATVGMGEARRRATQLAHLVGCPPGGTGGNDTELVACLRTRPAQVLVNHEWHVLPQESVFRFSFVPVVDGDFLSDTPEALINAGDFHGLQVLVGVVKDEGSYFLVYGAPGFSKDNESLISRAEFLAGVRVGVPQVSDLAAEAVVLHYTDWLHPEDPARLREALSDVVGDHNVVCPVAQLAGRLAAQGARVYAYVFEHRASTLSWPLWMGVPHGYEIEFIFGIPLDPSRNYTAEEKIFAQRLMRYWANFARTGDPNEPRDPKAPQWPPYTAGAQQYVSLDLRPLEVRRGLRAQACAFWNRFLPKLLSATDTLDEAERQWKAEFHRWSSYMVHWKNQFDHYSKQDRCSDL
Procedure: (§1) The inhibition of AChE and BuChE was evaluated using Ellman’s method, as previously reported. Briefly, extracts and pure compound were incubated with AChE or BuChE (25 µL, 0.05 U/mL), DTNB (125 µL, 3 mM) and buffer B (25 µL, 50 mM Tris–HCl, pH 8 containing 0.1% BSA) for 10 min at 37 °C. Then, the substrate of the reaction, the acetylthiocholine iodide or butyrylthiocholine chloride (25 µL, 5 mM), was added, and the absorbance was measured at 405 nm, after 10 min. Galanthamine was used as the standard in both assays. Results are expressed as IC50 values (mg/mL for extracts and µM for pure compound), using GraphPad Prism 8 Software (San Diego, CA, USA). The test was carried out in triplicate.

[2] = target: butyrylcholinesterase (BuChE) (Homo sapiens, UniProt P06276); assay: biochemical
Chain of butyrylcholinesterase (BuChE) (P06276 29-602): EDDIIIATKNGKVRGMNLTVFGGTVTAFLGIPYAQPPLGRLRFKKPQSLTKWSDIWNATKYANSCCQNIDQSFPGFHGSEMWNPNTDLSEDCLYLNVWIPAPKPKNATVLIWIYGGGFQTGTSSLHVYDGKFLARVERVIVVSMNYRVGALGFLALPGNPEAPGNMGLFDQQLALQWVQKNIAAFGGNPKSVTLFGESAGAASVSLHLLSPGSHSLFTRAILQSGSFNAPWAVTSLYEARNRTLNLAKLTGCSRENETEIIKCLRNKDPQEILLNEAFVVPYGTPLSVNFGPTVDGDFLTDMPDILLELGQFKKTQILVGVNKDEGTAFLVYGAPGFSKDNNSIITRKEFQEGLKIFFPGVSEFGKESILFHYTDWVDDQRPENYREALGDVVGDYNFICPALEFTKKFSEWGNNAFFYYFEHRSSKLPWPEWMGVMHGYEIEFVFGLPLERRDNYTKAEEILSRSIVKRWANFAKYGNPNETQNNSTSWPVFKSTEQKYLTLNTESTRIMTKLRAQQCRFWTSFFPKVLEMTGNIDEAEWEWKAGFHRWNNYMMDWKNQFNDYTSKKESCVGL
Procedure: as §1

[3] = test system: HeLa (cervical carcinoma) cells; assay: Cell viability MTT assay, HeLa; format: cell-based; details: 100, 50, 25 µM for 48 h, data not shown
Procedure: (§2) HeLa (cervical carcinoma), Jurkat (T-cell leukemia), and U937 (monocytic leukemia) cell lines were obtained from the American Type Cell Culture (ATCC) (Rockville, MD, USA). Cells were maintained in DMEM (HeLa) or RPMI 1640 (Jurkat and U937), supplemented with 10% FBS, 100 mg/L streptomycin and penicillin 100 IU/mL at 37 °C in a humidified atmosphere of 5% CO2. To ensure logarithmic growth, cells were subcultured every two days. Stock solutions (50 mM) of purified compound in DMSO were stored in the dark at 4 °C. Appropriate dilutions were prepared in a culture medium immediately prior to use.
(§3) Cell viability was evaluated using a colorimetric assay based on an MTT ([3-(4,5-dimethylthiazol-2-yl)-2,5-diphenyltetrazolium bromide]) assay, in order to compare the effect of potentially cytotoxic substances with a control condition. Briefly, cells were plated in 96-well tissue culture plates (3.5 × 10^3 cells/well) and after 24 h, the medium was replaced with a fresh one alone or one containing serial dilutions of compound 1 (100, 50, 25 µM), and incubation was performed for 48 h. […] The optical density (OD) of each well was measured with a microplate spectrophotometer (Multiskan Spectrum Thermo Electron Corporation reader, Thermo Fisher Scientific, Waltham, Massachusetts, United States) equipped with a 620 nm filter. Cell vitality was calculated as % vitality = 100 × (OD treated/OD DMSO).

[4] = test system: U937 (monocytic leukemia) cells; assay: Cell viability MTT assay, U937; format: cell-based; details: 100, 50, 25 µM for 48 h, data not shown
Procedure: as §2, §3

[5] = test system: Jurkat (T-cell leukemia) cells; assay: Cell viability MTT assay, Jurkat; format: cell-based; details: 100, 50, 25 µM for 48 h, data not shown
Procedure: as §2, with “use. […]” for “use.”
as §3, with “condition.” for “condition. Briefly, cells were plated in 96-well tissue culture plates (3.5 × 10^3 cells/well) and after 24 h, the medium was replaced with a fresh one alone or one containing serial dilutions of compound 1 (100, 50, 25 µM), and incubation was performed for 48 h.”

[6] = test system: HaCaT epidermal keratinocytes; assay: Cell viability MTT assay, HaCaT; format: cell-based; details: 100, 50, 25 µM for 48 h, data not shown
Procedure: Epidermal keratinocytes (HaCaT) were cultured in Dulbecco’s Modified Eagle’s Medium containing 10% fetal bovine serum, supplemented with 100 U/mL each of penicillin and streptomycin, and 2 mM/L glutamine, and grown at 37 °C under 5% CO2 air humidified atmosphere. Human leukemia cell lines (Jurkat) were maintained in RPMI medium supplemented with 10% FBS, 2 mM l-glutamine, 100 U/mL penicillin, and […] at 37 °C, in 5% CO2 [26].
as §3, with “h. Staurosporin 0.2 µM was used as a positive control.” for “h.”

Q: With plucheoside D1 as the molecule, how does the IC50 (BuChE) read?
A: 98.1 ± 2.72 µM

Q: Which IC50 (BuChE) does the source give for plucheoside D2 here?
A: 71.3 ± 2.82 µM

Q: What does the source list for `COc1cc(C[C@@H]2CO[C@@H](c3ccc(O)c(OC)c3)[C@@H]2COC(=O)c2ccccc2)ccc1O` [Compound 1, 4-benzoic acid 4-(4-hydroxy-3-meethoxybenzyl)-2-(4-hydroxy-3-methoxyphenyl) tetrahydrofuran-3-ylmethyl ester]?
A: IC50 (α-glucosidase): 26.8 ± 3.29 µM; inhibition at 100 µM [1]: 21%; IC50 [2]: 10.41 ± 0.03 µM; cytotoxicity (MTT) [3]: not toxic; cytotoxicity (MTT) [4]: not toxic; cytotoxicity (MTT) [5]: not toxic; cytotoxicity (MTT) [6]: not toxic

From publication PMC9865629, “Rhanteriol, a New Rhanterium suaveolens Desf. Lignan with Pharmacological Potential as an Inhibitor of Enzymes Involved in Neurodegeneration and Type 2 Diabetes” (Plants, 2023)
